Several values for one entry are separate records, joined by “and”; a condition that tells them apart may be missing. Identical values can stand only once.
How the values were obtained:
mouse L 1210 leukemia [1] = experiment: L1210 leukemia in mice: inoculum of 10^5 cells, single dose of compound 24 hours later; assay type: in vivo; details: for ILS (increased life span) %: inoculum 10^5 L1210 cells; for Cured animals: cured/total; for Criterion (i): ILS higher than 100%: intraperitoneal injection of 10^5 cells
Source text: The experimental tumor mouse L 1210 leukemia is commonly used to evaluate the effects of all the antitumor compounds now used in human therapeutics,as was described, for example, by C. C. ZUBROD in Proc. Nat. Acad. Sci. USA 69, 1972, pp. 1042-1047. This experimentally formed tumoral system permits very accurate quantitative evaluation of the activity of the compound tested and also, consequently, an objective comparison of the respective activities of various compounds, for example, according to the methods described by H. E. SKIPPER, F. M. SCHABEL Jr. and W. S. WILCOX in Cancer Chemiother. Rep. 1964, pp. 1-111 and 45, 1965, pp. 5-28.
(§1) The mice were randomized in each experimental series. A first routine experiment enable the death rate by toxicity to be determined and thus established the sublethal doses.
According to the convention in force in this field, the animals which survived longer than 45 days after inoculation of tumoral cells were considered to be cured.
(§2) To evaluate the therapeutic activity of the compounds of the invention, doses of said compound were expressed basing them on the 30 days sublethal dose which was fixed at 1.
A--A tumoral inoculum of 10^5 L1210 leukemia cells was administered by the intraperitoneal way to twenty 2 to 3 months old DBA/2 strain female mice. 24 hours later, half of said mice received a single intraperitoneal injection of a variable dose of the compound to be tested and the same volume of solvent was administered to the other half of the mice by the same way; this latter half of the group of mice was therefore used as the control series. The mice were randomized in each experimental series.
Animals surviving for longer than 45 days were considered to be cured.

[2] = for LDo (highest non lethal dose / sublethal dose) for mice: route not given; for DLo (I.P.): single i.p. injection
Source text: as §1, §2

mouse L 1210 leukemia [3] = experiment: L1210 leukemia in mice: inoculum of 10^5 cells, single dose of compound 24 hours later; assay type: in vivo; details: for ILS (increased life span) %: I.V., dose 1 (the sublethal dose), inoculum 10^5 L1210 cells; for Criterion (iv): persistence of the antileukemic action after an intravenous injection: L1210 in vivo
Solubility = assay type: physicochemical
DNA = DNA affinity; assay type: binding
[4] = Autoradiography with 14C-labeled molecules (biodisponibility); assay type: in vivo
Source text: To understand the increase of the antitumor efficiency of the quaternarized compounds, several parameters of action of 9--OH--E and its methyl derivative have been comparatively established (see table III). Both compounds have about the same affinity for DNA. On a weight basis, the methyl compound is about 10 times more toxic in mice but also 10 times more efficient on leukemic mice (ILS). […] Therefore, there is no quantitative parallel between the in vivo and in vitro action of these drugs. The N-quaternization markedly changes the biodisponibility of the drugs as shown by autoradiography with ^14 C-labeled molecules. […] Several ellipticine derivatives are mutagenic on Ames Salmonella test; however, the quaternized derivatives lose this property. The microsomes, which are able to metabolize some ellipticines, increase the mutagenic ability of these drugs in vitro. […] Due to the curved shape of their molecules, their relative hydrophobicity, and the presence of a heterocyclic nitrogen, the ellipticines are good substrates for the cytochrome P450 system, provided that the 2-N remains uncharged.

[5] = Metabolic studies in mice
[6] = I.P., dose 0.01 of the sublethal dose
[7] = I.P., dose 0.05 of the sublethal dose
[8] = I.P., dose 0.1 of the sublethal dose
[9] = I.P., dose 0.2 of the sublethal dose
[10] = I.P., dose 0.6 of the sublethal dose
[11] = I.P., dose 1 (the sublethal dose)

Cc1c2c[n+](C)ccc2c(C)c2c1c1cc(O)ccc1n2C [9-hydroxy-2,6-dimethyl-ellipticinium acetate]
Therapeutic index (mouse L 1210 leukemia [1]; L1210): extremely high
LDo (highest non lethal dose / sublethal dose) for mice [2]: 50 mg/kg

CC[n+]1ccc2c(C)c3[nH]c4ccc(O)cc4c3c(C)c2c1 [9-hydroxy-2-ethyl ellipticinium acetate, 9-hydroxy-2-ethyl-ellipticinium acetate]
ILS (increased life span) % (mouse L 1210 leukemia [1]; I.P., dose 0.002 of the sublethal dose): 114%
ILS (increased life span) % (mouse L 1210 leukemia [1]; [6]): 122%
ILS (increased life span) % (mouse L 1210 leukemia [1]; I.P., dose 0.02 of the sublethal dose): 132%
ILS (increased life span) % (mouse L 1210 leukemia [1]; [7]): 132%
ILS (increased life span) % (mouse L 1210 leukemia [1]; [8]): 175%
ILS (increased life span) % (mouse L 1210 leukemia [1]; [9]): 219%
ILS (increased life span) % (mouse L 1210 leukemia [1]; I.P., dose 0.4 of the sublethal dose): 165%
ILS (increased life span) % (mouse L 1210 leukemia [1]; [10]): 188%
ILS (increased life span) % (mouse L 1210 leukemia [1]; [11]): 157%
ILS (increased life span) % (mouse L 1210 leukemia [1]; I.V., dose 0.33 of the sublethal dose): 118%
Chemotherapeutic index (mouse L 1210 leukemia [1]; L1210 in vivo): 75
Criterion (ii): occurrence of cured animals (mouse L 1210 leukemia [1]; L1210 in vivo): +
Increased life span (ILS) (mouse L 1210 leukemia [1]; L1210 in vivo, dose LDo /5): 119%
Cured animals (mouse L 1210 leukemia [1]; L1210 in vivo, dose LDo /5): 3/20
Criterion (i): ILS higher than 100% (mouse L 1210 leukemia [1]; L1210 in vivo): + (increased life span (ILS) higher than 100% after intraperitoneal injection of 10^5 cells)
DL100 (I.P.) ([2]; mice, I.P.): 100 mg/kg
DL 100 (I.V.) ([2]; mice, I.V.): 20 mg/kg
DLo (I.V.) ([2]; mice, I.V.): 15 mg/kg
DLo (I.P.) ([2]; mice): 50 mg/kg
ILS (increased life span) % (mouse L 1210 leukemia [3]): 124%
Criterion (iv): persistence of the antileukemic action after an intravenous injection (mouse L 1210 leukemia [3]): +

Cc1c2cc[n+](CCO)cc2c(C)c2c1[nH]c1ccc(O)cc12 [9-hydroxy-2-hydroxyethyl-ellipticinium acetate]
ILS (increased life span) % (mouse L 1210 leukemia [1]; [6]): 115%
ILS (increased life span) % (mouse L 1210 leukemia [1]; [7]): 133%
ILS (increased life span) % (mouse L 1210 leukemia [1]; [8]): 159% and 151%
ILS (increased life span) % (mouse L 1210 leukemia [1]; I.P., dose 0.5 of the sublethal dose): 217%
ILS (increased life span) % (mouse L 1210 leukemia [1]; [11]): 197%
ILS (increased life span) % (mouse L 1210 leukemia [1]; I.P., dose 1.5 of the sublethal dose): 282%
ILS (increased life span) % (mouse L 1210 leukemia [1]; I.V., dose 0.25 of the sublethal dose): 121%
ILS (increased life span) % (mouse L 1210 leukemia [1]; I.V., dose 0.5 of the sublethal dose): 140%
ILS (increased life span) % (mouse L 1210 leukemia [1]; I.V., dose 2 × 0.5 of the sublethal dose): 142%
ILS (increased life span) % (mouse L 1210 leukemia [1]; I.V., dose 3 × 0.25 of the sublethal dose): 125%
Criterion (ii): occurrence of cured animals (mouse L 1210 leukemia [1]; L1210 in vivo): +
Increased life span (ILS) (mouse L 1210 leukemia [1]; L1210 in vivo, dose LDo /2): 117%
Cured animals (mouse L 1210 leukemia [1]; L1210 in vivo, dose LDo /2): 2/15
Criterion (i): ILS higher than 100% (mouse L 1210 leukemia [1]; L1210 in vivo): + (increased life span (ILS) higher than 100% after intraperitoneal injection of 10^5 cells)
DLo (I.V.) ([2]; mice, I.V.): 20 mg/kg
DLo (I.P.) ([2]; mice): 10 mg/kg
ILS (increased life span) % (mouse L 1210 leukemia [3]): 146%
Criterion (iv): persistence of the antileukemic action after an intravenous injection (mouse L 1210 leukemia [3]): +

CC[n+]1ccc2c(C)c3c(c(C)c2c1)c1cc(O)ccc1n3C [9-hydroxy-6-methyl-2-ethyl-ellipticinium acetate]
ILS (increased life span) % (mouse L 1210 leukemia [1]; [8]): 127%
ILS (increased life span) % (mouse L 1210 leukemia [1]; [9]): 178%
ILS (increased life span) % (mouse L 1210 leukemia [1]; [10]): 202%
Increased life span (ILS) (mouse L 1210 leukemia [1]; L1210 in vivo, dose ≈ LDo /2): 102%
Criterion (i): ILS higher than 100% (mouse L 1210 leukemia [1]; L1210 in vivo): + (increased life span (ILS) higher than 100% after intraperitoneal injection of 10^5 cells)
DLo (I.V.) ([2]; mice, I.V.): 5 mg/kg
DLo (I.P.) ([2]; mice): 50 mg/kg
ILS (increased life span) % (mouse L 1210 leukemia [3]): 115%

Cc1c2c[n+](C)ccc2c(C)c2c1c1cc(O)ccc1n2C [9-hydroxy-6-methyl-ellipticinium iodomethylate]
Solubility (Solubility): much more soluble than the 9-hydroxy-ellipticinium iodomethylate

Cc1c2ccncc2c(C)c2c1[nH]c1ccc(O)cc12 [Example 9-OH--E, 9-hydroxy-ellipticine, reference compound]
ED (ILS 25%) (mouse L 1210 leukemia [1]; Mus musculus, L1210, ip, read-out: L 1210 cells: in vivo dose to reach ILS 25%): 10 mg/kg
LDo (highest non lethal dose / sublethal dose) for mice [2]: 50 mg/kg
Kd (DNA): 435 nM
Elimination [4]: mostly eliminated through the bile into feces
Organ distribution (autoradiography) [4]: concentrates in several organs, including the lungs and the pancreas
Metabolism [5]: only glucuroconjugated

Cc1c2ccncc2c(C)c2c1[nH]c1ccccc12 [ellipticine]
Metabolism [5]: hydroxylated in the 9-position and then glucuroconjugated
